Reference: patent US12257260B2, “Pharmaceutical use of anemoside B4 against acute gouty arthritis” (priority 2018, dated 2025)

Key:
[1] = tested on: rats with acute gouty arthritis induced by MSU; test: Example 1: effect of anemoside B4 on sodium urate (MSU)-induced acute gouty arthritis in rats, joint swelling; format: in vivo, SD rats; design: key to Swelling degree 2 h after modelling / Swelling degree 6 h after modelling / Swelling degree 8 h after modelling / Swelling degree 12 h after modelling / Swelling degree 24 h after modelling: swelling = joint volume after modeling − joint volume before modeling
Method: 2.1 Preparation of sodium urate (MSU) crystals and suspension: 5 ml of 1 mol/L NaOH solution and 800 mg sodium urate were added to 155 ml depyrogenated sterile water for injection and heated to boiling. Sodium urate was completely dissolved and then cooled down naturally under stirring. After that, 1 mol/L HCl was dropped to pH 7.0, then the solution became milky white, and was immediately centrifuged at 3000 r/min for 2 min. The crystals were collected, dried in an oven at 60° C., placed in an EP tube, and stored at 4° C. Prior to use, MSU crystals were autoclaved at 121° C. for 30 min, and dispersed in PBS to make the required concentration, i.e. to obtain a suspension of sodium urate (MSU). The film preparation of the suspension was performed, and the long fusiform crystals can be seen under the optical microscope.
2.2 Grouping, administration, and model establishment: 60 rats were randomly divided into 6 groups according to their body weights, 10 rats for each group: (1) model group; (2) colchicine group (0.3 mg/kg); (3) B4 subcutaneous injection group (5 mg/kg*2); (4) B4 intravenous injection group (5 mg/kg*2); (5) B4 intramuscular injection high-dose group (5 mg/kg*2); (6) B4 intramuscular injection low-dose group (2.5 mg/kg*2); normal group (5 rats). The normal group and the model group were injected with the same volume of normal saline, and each of B4 groups was given corresponding drugs by the corresponding route of administration for 3 days, twice a day, with an interval of 4 hours between two times.
Modeling method: on the day of modeling, the model was initially established 1 h after administrating in the drug groups. Among them: • (1) Model group: each rat was injected with 40 mg/mL MSU suspension to the back of the right ankle joint at a dose of 0.2 mL/rat; • (2) Colchicine group: the colchicine group was administered once on the day of modeling, and 1 h after administration, each rat was injected with 40 mg/mL MSU suspension on the dorsal side of the right ankle joint at a dose of 0.2 mL/mouse; • (3)-(6) B4 groups: 1 h after the last administration, each rat was injected with 40 mg/mL MSU suspension on the dorsal side of the right ankle joint at 0.2 mL/mouse, and 3 h after modeling, each test group was further administrated once.
2.3 Measurement of joint swelling: before modeling and 2 h, 4 h, 6 h, 8 h, 12 h, 24 h after modeling, the volume of the right ankle joint was measured, and the swelling degree was calculated by “joint volume after modeling-joint volume before modeling”.

[2] = tested on: rats with acute gouty arthritis induced by MSU; test: Example 2: further investigation at reduced dose, sodium urate (MSU)-induced acute gouty arthritis in rats, joint swelling; format: in vivo, SD rats; design: key to Swelling degree 2 h after modelling / Swelling degree 4 h after modelling / Swelling degree 6 h after modelling: joint volume after modeling minus joint volume before modeling
From the text: Based on Example 1, the dosage of anemoside B4 was reduced, and the effect on alleviating the joint swelling of acute gouty arthritis caused by sodium urate in rats was further investigated. • 1. Experimental materials: same as item “1.” in example 1. • 2. Experimental method • 2.1 Preparation of sodium urate (MSU) crystals and suspension: same as item “2.1” in Example 1. • 2.2. Grouping, administration, and model establishment: • 2.2.1 Grouping: 50 rats were randomly divided into 5 groups according to their body weights, 10 rats for each group: • (1) model group; (2) colchicine group (0.15 mg/kg); (3) B4 subcutaneous injection group (2.5 mg/kg*2); (4) B4 intramuscular injection group (2.5 mg/kg*2); (5) B4 intravenous injection group (2.5 mg/kg*2). • 2.2.2 Administration: The model group was injected with the same volume of normal saline, and each test group (including B4 groups and colchicine group) was administered only on the day of model building. Among them, colchicine group was administered once, while each B4 group was successively administered two times with an interval of 4 h. • 2.2.3 Model establishment and measurement of joint swelling: the model was initially established 1 h after administrating in the drug groups, and the method was same as that in example 1. Before modeling and 2 h, 4 h, 6 h, 8 h, and 12 h after modeling, the volume of the right ankle joint was measured, and the swelling degree was calculated by “joint volume after modeling joint volume before modeling”. • 3.

[3] = B4 intramuscular high-dose group, 5 mg/kg * 2
[4] = B4 intramuscular low-dose group, 2.5 mg/kg * 2
[5] = B4 intravenous injection group, 5 mg/kg * 2
[6] = B4 subcutaneous injection group, 5 mg/kg * 2
[7] = B4 intramuscular injection group, 2.5mg/kg * twice
[8] = B4 intravenous injection group, 2.5mg/kg * twice
[9] = B4 subcutaneous injection group, 2.5 mg/kg * twice

COc1cc2c(c(OC)c1OC)-c1ccc(OC)c(=O)cc1[C@@H](NC(C)=O)CC2 [Colchicine, colchicine, reference compound]
Swelling degree 4 h after modelling ([1]; Colchicine group, 0.3 mg/kg): 0.13 ± 0.11^Δ
Swelling degree 6 h after modelling ([1]; Colchicine group, 0.3 mg/kg): 0.19 ± 0.14
Swelling degree 8 h after modelling ([1]; Colchicine group, 0.3 mg/kg): 0.25 ± 0.20
Swelling degree 12 h after modelling ([1]; Colchicine group, 0.3 mg/kg): 0.35 ± 0.23
Swelling degree 24 h after modelling ([1]; Colchicine group, 0.3 mg/kg): 0.33 ± 0.11
Swelling degree 2 h after modelling ([1]; Colchicine group, 0.3 mg/kg, once on the day of modeling): 0.14 ± 0.08
swelling degree of the joints compared with the model group ([1]; colchicine group, 4 h after modelling): significantly reduced
Swelling degree 4 h after modelling ([2]; Colchicine group, 0.15 mg/kg): 0.082 ± 0.11
Swelling degree 6 h after modelling ([2]; Colchicine group, 0.15 mg/kg): 0.056 ± 0.11^Δ
Swelling degree 8 h after modelling ([2]; Colchicine group, 0.15 mg/kg): 0.135 ± 0.13^Δ
Swelling degree 12 h after modelling ([2]; Colchicine group, 0.15 mg/kg): 0.128 ± 0.13^Δ
Swelling degree 2 h after modelling ([2]; Colchicine group, 0.15 mg/kg, once on the day of model building): 0.155 ± 0.07
swelling degree of the joint compared with the model group ([2]; colchicine group, 6-12 h after modelling): obviously reduced and significantly different

C=C(C)C1CCC2(C(=O)O[C@@H]3O[C@H](CO[C@@H]4O[C@H](CO)[C@@H](O[C@@H]5O[C@@H](C)[C@H](O)[C@@H](O)[C@H]5O)[C@H](O)[C@H]4O)[C@@H](O)[C@H](O)[C@H]3O)CC[C@]3(C)[C@H](CC[C@@H]4[C@@]5(C)CC[C@H](OC6OC[C@H](O)[C@H](O)[C@H]6O[C@@H]6O[C@@H](C)[C@H](O)[C@@H](O)[C@H]6O)[C@@](C)(CO)[C@@H]5CC[C@]43C)[C@@H]12 (stereo partly shown) [B4, anemoside B4]
Swelling degree 2 h after modelling [1, 3]: 0.15 ± 0.10
Swelling degree 4 h after modelling [1, 3]: 0.15 ± 0.09^Δ
Swelling degree 6 h after modelling [1, 3]: 0.19 ± 0.11
Swelling degree 8 h after modelling [1, 3]: 0.28 ± 0.11
Swelling degree 12 h after modelling [1, 3]: 0.33 ± 0.16
Swelling degree 24 h after modelling [1, 3]: 0.35 ± 0.23
swelling degree of the joints compared with the model group ([1]; B4 intramuscular injection group, 2-4 h after modelling): significantly reduced
Swelling degree 2 h after modelling [1, 4]: 0.12 ± 0.07^Δ
Swelling degree 4 h after modelling [1, 4]: 0.11 ± 0.11^Δ
Swelling degree 6 h after modelling [1, 4]: 0.20 ± 0.11
Swelling degree 8 h after modelling [1, 4]: 0.32 ± 0.18
Swelling degree 12 h after modelling [1, 4]: 0.38 ± 0.23
Swelling degree 24 h after modelling [1, 4]: 0.55 ± 0.35
Swelling degree 4 h after modelling [1, 5]: 0.08 ± 0.18^Δ
Swelling degree 6 h after modelling [1, 5]: 0.13 ± 0.14^Δ
Swelling degree 8 h after modelling [1, 5]: 0.23 ± 0.21
Swelling degree 12 h after modelling [1, 5]: 0.22 ± 0.19
Swelling degree 24 h after modelling [1, 5]: 0.28 ± 0.21
Swelling degree 2 h after modelling ([1]; B4 intravenous injection group, 5 mg/kg * 2, 3 days, right ankle joint volume after minus before modelling): 0.17 ± 0.14
swelling degree of the joints compared with the model group ([1]; B4 intravenous injection group, 4-6 h after modelling): significantly reduced
Swelling degree 2 h after modelling [1, 6]: 0.10 ± 0.08^Δ
Swelling degree 4 h after modelling [1, 6]: 0.07 ± 0.08^ΔΔ
Swelling degree 6 h after modelling [1, 6]: 0.13 ± 0.09^Δ
Swelling degree 8 h after modelling [1, 6]: 0.21 ± 0.13
Swelling degree 12 h after modelling [1, 6]: 0.27 ± 0.15
Swelling degree 24 h after modelling [1, 6]: 0.28 ± 0.16
swelling degree of the joints compared with the model group ([1]; B4 subcutaneous injection group, 2-6 h after modelling): significantly reduced
effect on reducing the acute joint swelling caused by sodium urate (MSU) crystals, compared with colchicine ([1]; administration routes and dosages of Example 1): equivalent to that of colchicine
joint swelling of acute gouty arthritis (conclusion) ([1]; subcutaneous, intramuscular and intravenous injection): significantly alleviate
alleviating the joint swelling of acute gouty arthritis (conclusion) ([2]; B4 injection, Example 2): significant effect
Swelling degree 2 h after modelling [2, 7]: 0.099 ± 0.08
Swelling degree 4 h after modelling [2, 7]: 0.130 ± 0.07
Swelling degree 6 h after modelling [2, 7]: 0.090 ± 0.07
Swelling degree 8 h after modelling [2, 7]: 0.134 ± 0.10^Δ
Swelling degree 12 h after modelling [2, 7]: 0.097 ± 0.17^Δ
swelling degree of the joint compared with the model group ([2]; B4 intramuscular injection group, 8-12 h after modelling): obviously reduced and significantly different
joint swelling degree, rank among groups ([2]; B4 intramuscular injection group, 12 h after modeling): smallest in all groups
Swelling degree 2 h after modelling [2, 8]: 0.113 ± 0.09
Swelling degree 4 h after modelling [2, 8]: 0.099 ± 0.10
Swelling degree 6 h after modelling [2, 8]: 0.108 ± 0.18
Swelling degree 8 h after modelling [2, 8]: 0.113 ± 0.24^Δ
Swelling degree 12 h after modelling [2, 8]: 0.124 ± 0.27^Δ
swelling degree of the joint compared with the model group ([2]; B4 intravenous injection group, 8-12 h after modelling): obviously reduced and significantly different
Swelling degree 4 h after modelling [2, 9]: 0.008 ± 0.11
Swelling degree 6 h after modelling [2, 9]: 0.040 ± 0.09^Δ
Swelling degree 8 h after modelling [2, 9]: 0.103 ± 0.18^Δ
Swelling degree 12 h after modelling [2, 9]: 0.103 ± 0.16^Δ
Swelling degree 2 h after modelling ([2]; B4 subcutaneous injection group, 2.5 mg/kg * twice, day of modelling only): 0.067 ± 0.10
joint swelling degree, rank among groups ([2]; B4 subcutaneous injection group, 2-8 h after modeling): smallest in all groups
swelling degree of the joint compared with the model group ([2]; B4 subcutaneous injection group, 6-12 h after modelling): obviously reduced and significantly different
effect on reducing the joint swelling of acute gouty arthritis caused by sodium urate, compared with colchicine ([2]; administration routes and dosages of Example 2): equivalent to that of colchicine
